“And” between values parts separate entries of the source, which are not always exact repeats. Equal values may be shown once.
Experiments:
AAC(3)-XIa = AAC(3)-XIa (Corynebacterium striatum, UniProt A0ABX7DED9); experiment: Isothermal titration calorimetry; assay type: binding; settings: 25 °C, with coenzyme A, n = 3
Procedure: (§1) To accurately measure protein ligand interactions, the concentration of our proteins of interest was measured spectrophotometrically using the NanoDrop OneC Spectrometer (Thermo Scientific). ITC experiments were performed on a MicroCal iTC 200 (General Electric) at 25 °C with stirring at 750 rpm. Unique buffer solutions were used for each enzyme. AAC(3)-Ia was prepared in 50 mM HEPES, pH 7, and 150 mM NaCl. AAC(3)-IIIa was prepared in 120 mM Tris, pH 7.5, and 150 mM NaCl. AAC(3)-XIa was prepared in 20 mM Tris, pH 7.5, and 150 mM NaCl. The cell contained 550 μM AAC(3)-Ia, 350 μM AAC(3)-IIIa, or 450 μM AAC(3)-XIa. All experiments also contained 5000 μM of coenzyme A trilithium salt in the cell. […] In all ITC experiments, aminoglycosides were prepared in the same buffering solution as the target protein. The ligands were injected 29 times ([…] per injection) with a 180 s interval between injections. Results were analyzed using ORIGIN software version 7E (MicroCal) using the molecular weight of a single protomer of each protein and fitted with a two-set of sites binding model (Supplementary Fig. 5). Data analysis was performed in Microsoft Excel and GraphPad5 software. One-way ANOVA and Tukey’s multiple comparison tests were used to determine the statistical significance of binding affinities.

AAC(3)-Ia = AAC(3)-Ia (Acinetobacter baumannii, UniProt D7R512); experiment: Isothermal titration calorimetry; assay type: binding
Procedure: as §1

[1] = AAC(3)-XIa, second set of sites
[2] = AAC(3)-Ia, first set of sites, 25 °C, with coenzyme A, n = 3
[3] = AAC(3)-Ia, second set of sites, 25 °C, with coenzyme A, n = 3

Q: How did the TΔS (AAC(3)-XIa; AAC(3)-XIa, first set of sites) turn out when CN[C@@H]1[C@@H](O)[C@@H](O[C@@H]2[C@@H](O)[C@H](O[C@H]3OC(CN)=CC[C@H]3N)[C@@H](N)C[C@H]2N)OC[C@]1(C)O [Sisomicin, sisomicin] was run?
A: -4.51 ± 0.378 kcal/mol

Q: What about the ΔG (AAC(3)-XIa; AAC(3)-XIa, first set of sites) of the same compound?
A: -8.12 ± 0.53 kcal/mol

Q: What about the ΔH (AAC(3)-XIa; AAC(3)-XIa, first set of sites) of the same compound?
A: −12,600 ± 372 cal/mol

Q: What about the “N (sites)” value (AAC(3)-XIa; AAC(3)-XIa, first set of sites, two-set of sites model) of the same compound?
A: 0.51 ± 0.01 sites

Q: And the “N2 (sites)” value (AAC(3)-XIa; [1])?
A: 0.36 ± 0.04 sites

Q: What about the “TΔS 2” value (AAC(3)-XIa; [1]) of the same compound?
A: 7.295 ± 1.615 kcal/mol

Q: And the “ΔG 2” value (AAC(3)-XIa; [1])?
A: -6.237 ± 2.237 kcal/mol

Q: What about the “ΔH 2” value (AAC(3)-XIa; [1]) of the same compound?
A: 1.058 ± 1.548 kcal/mol

Q: And the Kd (AAC(3)-XIa; Kd2, AAC(3)-XIa, second set of sites)?
A: 27.1 ± 4.2 µM

Q: And the Kd (AAC(3)-XIa; Kd, AAC(3)-XIa, first set of sites, two-set of sites model)?
A: 1.1 ± 0.02 µM

Q: What about the TΔS (AAC(3)-Ia; [2]) of the same compound?
A: 3.3 ± 0.427 kcal/mol

Q: What about the ΔG (AAC(3)-Ia; [2]) of the same compound?
A: -6.25 ± 0.596 kcal/mol

Q: And the ΔH (AAC(3)-Ia; [2])?
A: -2.95 ± 0.416 kcal/mol

Q: And the “N (sites)” value (AAC(3)-Ia; AAC(3)-Ia, first set of sites, two-set of sites model, 25 °C, with coenzyme A, n = 3)?
A: 0.50 ± 0.06 sites

Q: What about the “N2 (sites)” value (AAC(3)-Ia; [3]) of the same compound?
A: 0.54 ± 0.01 sites

Q: What about the “TΔS 2” value (AAC(3)-Ia; [3]) of the same compound?
A: 3.45 ± 0.795 kcal/mol

Q: What about the “ΔG 2” value (AAC(3)-Ia; [3]) of the same compound?
A: -5.66 ± 1.1 kcal/mol

Q: What about the “ΔH 2” value (AAC(3)-Ia; [3]) of the same compound?
A: -2.21 ± 0.763 kcal/mol

Q: And the Kd (AAC(3)-Ia; Kd2, AAC(3)-Ia, second set of sites, 25 °C, with coenzyme A, n = 3)?
A: 71.8 ± 7.5 µM

Q: What about the Kd (AAC(3)-Ia; Kd, AAC(3)-Ia, first set of sites, two-set of sites model, 25 °C, with coenzyme A, n = 3) of the same compound?
A: 26 ± 0.6 µM

Q: What about the Kd (AAC(3)-Ia; Kd, AAC(3)-Ia, individual replicates, raw data behind Fig. 6) of the same compound?
A: 26.2 µM and 24.9 µM and 27 µM

From paper PMC12378234, “Enzyme-mediated aminoglycoside resistance without target mimicry” (Communications Chemistry, 2025)
